“And” between values parts separate entries of the source, which are not always exact repeats. Equal entries are not always repeated. Marks after values point to notes of the source that are not given here. Ends that are not written are not given here.
Key:
T lymphocyte = T lymphocyte transformation test (ConA-stimulated spleen cells of treated mice, MTT); assay type: in vivo, BALB/c mice; conditions: for X ± SD (stimulation index): healthy mice, saline 1.3 ± 0.1; for effect on T lymphocyte transformation (summary): statistically significant difference from saline in any of the dosage groups 0.5-500 μg/kg/day
Summary of the method: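 Mice (10/group) received substances i.p. in 0.5 ml saline daily for 15 days; next day splenocytes (1×10^6/ml) were cultured 66 h at 37 °C with or without ConA (100 μg/ml stock added). MTT was added for 4 h and OD570 (ref 630 nm) read; stimulation index = mean ConA OD / mean control OD per mouse.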

IL-2 = test: T lymphocyte IL-2 secretion test (HT-2 cell bioassay of ConA supernatant); assay type: in vivo, BALB/c mice; conditions: for activity of T lymphocyte in secreting IL-2, X ± SD (IU): healthy mice; for effect on the secretion of interleukin-2 (IL-2) by T lymphocytes (summary): statistically significant difference from saline in any of the dosage groups 0.5-500 μg/kg/day
Procedure: Spleen cells of density 1×10^6/ml were placed onto a 96 wells cell culture plate, 100 μL/well, three parallel wells each of the assay sample and control sample per mouse. To the assay wells, 100 μl/well ConA of 100 μg/ml in RPMI-1640 was added, and […] plain RPMI-1640 was used for the controls. The cells were incubated for 66 hrs at 37° C., 5% CO2. The cells were then pelleted by centrifugation at 150 g for 10 minutes.
HT-2 cells at log phase were collected by centrifugation at 150 g for 10 minutes, and washed three times with cold Hank's solution by re-suspension and centrifugation. The collected HT-2 cells were re-suspended in RPMI-1640 and incubated at 37° C., 5% CO2 for 30 minutes. The cells were further washed twice with RPMI-1640 by re-suspension and centrifugation, and re-suspended to final concentration of 2×10^5/ml with RPMI-1640.
rIL-2 was diluted to the following concentration with RPMI-1640: 500 IU/ml, 250 IU/ml, 125 IU/ml, 62.5 IU/ml, 31.25 IU/ml, and […].
The plate was incubated at 37° C., 5% CO2 for 68 hours, then centrifuged at 150 g for 15 minutes and the supernatant removed. 100 μl 0.5 mg/ml MTT in RPMI-1640 without phenolsulfonphthalein was added into each well. After shaking for 3-4 minutes to re-suspend the cells, continue to incubate for another 4 hours. Samples were then centrifuged at 150 g for 15 minutes and the supernatant was removed. To each well, 120 μl 40 mM HCl-2-propanol was added, mixed for 3-4 minutes and OD analyzed at 570 nm, referenced at 630 nm with an ELISA plate reader.
The average OD of the three parallel wells of each dilution was taken and plotted against concentration on a semi-log paper, concentration on the X-axis. The concentration at 50% OD saturation was obtained for both the testing supernatant and rIL-2.

interferon (IFN) = tested on: interferon (IFN); parameters: species or system BALB/c mice; conditions: mouse, in vivo; for activity of T lymphocyte in secreting IFN, X ± SD (IU): ip
spleen = test: Immunity organ weight test, spleen index; assay type: in vivo, BALB/c mice; conditions: for weight of spleen (spleen index), X ± SD (%): healthy mice, saline 0.53 ± 0.05; for effect on the weight of the spleen (summary): statistically significant difference from saline in any of the dosage groups 0.5-500 μg/kg/day
Procedure: One day after the last test substance administration (day 16), the liver, spleen, and thymus gland were separated and blotted dry with filter paper and weighed. The phagocytosis index α was calculated as below: α=(^3√{square root over ( )}K)(W÷WLS)
Spleen index (%)=(spleen weight/body weight)×100%

[1] = tested on: ascitic fluid type liver cancer H22; test: Survival of mice with transplanted ascitic fluid type liver cancer H22; assay type: in vivo, BALB/c mice; conditions: dose 0.5 μg/kg i.p. once per day
Procedure: Intraperitoneal injection, once per day. […] Treatment of all groups with testing substance lasted for 30 days or until the animal died unless otherwise specified.
Stock H22 cells were incubated in DMEM/F12 medium supplemented with 10% fetal bovine serum, 37° C./5% CO2 for 72 hrs, then washed 3-4 times with Hank's solution at room temperature. Adjust cell concentration to 1-2×10^9 per litre with Hank's solution. 0.2 ml of the cell suspension was implanted to the abdominal cavity of several BALB/c mice for 6-8 days. The mice were killed by cervical vertebra dislocation. Ascitic fluid of the mice was collected aseptically and the cell concentration adjusted to 1×10^6 per ml with Hank's solution. 0.2 ml of the cell suspension was implanted into the abdominal cavity of healthy mice to generate the H22 carrying mouse model for ascitic fluid type liver cancer. Administration of test substance started as described in section Method 1. Survival data of the mice was recorded. If the animal survived longer than the experiment, the survival days was recorded as the duration of the experiment. Mean survival day was obtained by the Kaplan-meier method in the Survival option of the SPSS software. The survival index was calculated according to the following formula: Survival index=(mean survival days in treatment group−mean survival days of control group)÷mean survival days of control group×100% 4. The Effect of Peptides on the Cellular Immunity of BALB/c Mice with Transplanted Ascitic Fluid Type Liver Cancer H22 4.1 Preparation of Spleen Cell Suspension^[1,4]

[2] = peptide 500 μg/kg/day i.p. 15 days (IFN-γ, IL-2 3×10^5 IU/kg/day)
[3] = peptide 5 μg/kg/day i.p. 15 days (IFN-γ, IL-2 3×10^5 IU/kg/day), saline 37 ± 9
[4] = peptide 0.51 g/kg/day (so in the source) i.p. 15 days (IFN-γ, IL-2 3×10^5 IU/kg/day), saline 38 ± 13
[5] = peptide 500 μg/kg/day i.p. 15 days (IFN-γ, IL-2 3×10^5 IU/kg/day), saline 39 ± 10
[6] = peptide 500 μg/kg/day i.p. 15 days
[7] = peptide 5 μg/kg/day i.p. 15 days (IFN-γ, IL-2 3×10^5 IU/kg/day)
[8] = peptide 50 μg/kg/day i.p. 15 days (IFN-γ, IL-2 3×10^5 IU/kg/day)
[9] = peptide 50 μg/kg/day i.p. 15 days (IFN-γ, IL-2 3×10^5 IU/kg/day), saline 39 ± 10
[10] = peptide 0.5 μg/kg/day i.p. 15 days (IFN-γ, IL-2 3×10^5 IU/kg/day)

| Substance | X ± SD (stimulation index) (T lymphocyte; [2]) | effect on T lymphocyte transformation (summary) (T lymphocyte) | activity of T lymphocyte in secreting IL-2, X ± SD (IU) (IL-2; [4]) | effect on the secretion of interleukin-2 (IL-2) by T lymphocytes (summary) (IL-2) | effect on the secretion of IFN by T lymphocytes (summary) (interferon (IFN)) | activity of T lymphocyte in secreting IFN, X ± SD (IU) (interferon (IFN)) | weight of spleen (spleen index), X ± SD (%) (spleen; [6]) | effect on the weight of the spleen (summary) (spleen) | other results |
| --- | --- | --- | --- | --- | --- | --- | --- | --- | --- |
| LGMQACGIHETTY [CMS012] | 1.6 ± 0.2 | enhance | 59 ± 13 IU | enhance | enhance | 86 ± 9 IU |  |  | activity of T lymphocyte in secreting IL-2, X ± SD (IU) (IL-2; [3]): 65 ± 16 IU |
| Pro Ser Ile Vat Gly Arg Pro Arg His Gln Gly Val Met (PSIVGRPRHQGVM; listed as Sus scrofa) [CMS015] | 1.9 ± 0.3*^@^ | enhance |  | enhance |  |  | 0.36 ± 0.07 % | decrease | activity of T lymphocyte in secreting IL-2, X ± SD (IU) (IL-2; [5]): 85 ± 17*^ IU; weight of spleen (spleen index), X ± SD (%) (spleen; Table 30, peptide 5 μg/kg/day i.p. 15 days): 0.38 ± 0.15 % |
| VGMGQKDSY | 1.8 ± 0.3 | enhance |  |  |  |  | 0.63 ± 0.08 % | increase |  |
| PTTKTYFPHF [CMS001] |  | enhance |  | enhance | enhance | 110 ± 15 IU | 0.43 ± 0.07 % | decrease | X ± SD (stimulation index) (T lymphocyte; [7]): 1.7 ± 0.2; X ± SD (stimulation index) (T lymphocyte; [8]): 2.2 ± 0.5*^@^; activity of T lymphocyte in secreting IL-2, X ± SD (IU) (IL-2; [9]): 60 ± 10 IU; weight of spleen (spleen index), X ± SD (%) (spleen; [10]): 0.40 ± 0.05 % |
| Tyr Ser Phe (YSF; listed as Sus scrofa) [CMS022] |  |  | 109 ± 14*^@^ IU | enhance | enhance | 145 ± 13*^@^ IU |  |  |  |
| LRVAPQQHPTL [CMS009] | 1.7 ± 0.2 | enhance |  | enhance | enhance | 121 ± 15*^ IU | 0.41 ± 0.03 % | decrease | activity of T lymphocyte in secreting IL-2, X ± SD (IU) (IL-2; [5]): 114 ± 13*^@^ IU |
| IGMESAGIHETTY [CMS016] |  |  |  |  | enhance | 162 ± 19*^@^ IU |  |  |  |
| Pro Gln Asn Phe (PQNF; printed: Pro Gln Asn Phe) [CMS034] |  | enhance | 85 ± 10*^ IU | enhance |  |  |  |  | X ± SD (stimulation index) (T lymphocyte; [7]): 1.5 ± 0.2 |
| FNFVPP [CMS003] |  | enhance |  | enhance | enhance | 106 ± 16 IU | 0.40 ± 0.04 % | decrease | X ± SD (stimulation index) (T lymphocyte; [7]): 1.6 ± 0.2; X ± SD (stimulation index) (T lymphocyte; [8]): 2.2 ± 0.5*^@^; activity of T lymphocyte in secreting IL-2, X ± SD (IU) (IL-2; [9]): 86 ± 9*^ IU |
| VAPEEHPTLLTEAPLNPK [CMS010] | 2.0 ± 0.3*^@^ | enhance | 66 ± 11 IU | enhance | enhance | 167 ± 13*^@^ IU and 142 ± 18*^@^ IU |  | decrease | X ± SD (stimulation index) (T lymphocyte; [10]): 1.7 ± 0.3; activity of T lymphocyte in secreting IL-2, X ± SD (IU) (IL-2; [5]): 125 ± 17*^@^ IU; weight of spleen (spleen index), X ± SD (%) (spleen; Table 28, peptide 5 μg/kg/day (so in the source) i.p. 15 days (IFN-γ, IL-2 3×10^5 IU/kg/day)): 0.38 ± 0.05 % |
| Phe Gln Gln Gln (FQQQ; printed: Phe Gln Gln Gln) [CMS032] |  |  |  |  |  |  |  |  | Survival index (%) [1]: 63.3%; Survival days ([1]; saline 26.2 ± 6.8): 42.8 ± 12.2*^^&$ days |
| VGMGQKDSYV [CMS020] |  |  |  | enhance |  |  |  | increase | activity of T lymphocyte in secreting IL-2, X ± SD (IU) (IL-2; [3]): 63 ± 11 IU; weight of spleen (spleen index), X ± SD (%) (spleen; [10]): 0.68 ± 0.09*^@^ % |

— US20060167229A1, “Biologically active peptide conjugates” (priority 2002, published 2006)
